From patent publication US20240239821A1, “N-ACYL FOSMIDOMYCIN PRODRUG ANALOGS AS NOVEL ANTIINFECTIVE AGENTS” (THE GEORGE WASHINGTON UNIVERSITY, priority 2021, published 2024)
Like-named read-outs stand apart in the source and are kept apart here.

Assays:
P falciparum strain 3D7 = test: microbe, parasite or virus in culture; type: cell-based, Plasmodium falciparum
Experimental: P falciparum strain 3D7 (wild-type, WT) was obtained through MR4 as part of the BEi Resources Repository, NIAID, NIH (www.mr4.org). AP falciparum strain containing increased levels of MEP pathway metabolites, had]
(MRA-1257), and its isogenic compliment, had]+ Pfl-Iadl-GFP (MRA-1258), were generated in strain 3D7, as reported (Guggisberg et al.). Parasites were cultured in a 2% suspension of human erythrocytes and RPMI 1640 (Sigma) medium supplemented with 27 mM sodium bicarbonate, 11 mM glucose, 5 mM HEPES, I mM sodium pyruvate, 0.37 mM hypoxanthine, 0.01 mM thymidine, 10 μg/mL gentamicin, and 0.5% Albumax (Gibco) at 37° C., 5% 02/5% CO2/90% N2 atmosphere.

P. falciparum DXR [1] = biological target: T1, P. falciparum DXR (Plasmodium falciparum, UniProt Q8IKG4); conditions: background statement; cited from earlier work
T1 construct: His6 (N); made in house; host or cells: Escherichia coli Rosetta2(DE3)
T1 sequence (Q8IKG4 73-488): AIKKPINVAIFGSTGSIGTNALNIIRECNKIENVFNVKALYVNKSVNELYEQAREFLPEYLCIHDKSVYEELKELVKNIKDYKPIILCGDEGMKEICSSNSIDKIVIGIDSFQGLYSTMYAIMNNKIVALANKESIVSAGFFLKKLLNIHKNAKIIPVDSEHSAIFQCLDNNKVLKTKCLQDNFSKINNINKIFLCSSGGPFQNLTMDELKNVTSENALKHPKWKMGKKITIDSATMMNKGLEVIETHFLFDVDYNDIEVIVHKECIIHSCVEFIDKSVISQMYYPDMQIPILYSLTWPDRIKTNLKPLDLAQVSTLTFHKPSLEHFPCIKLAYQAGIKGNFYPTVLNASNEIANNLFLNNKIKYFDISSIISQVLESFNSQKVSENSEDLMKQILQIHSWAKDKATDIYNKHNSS

P. falciparum DXR [2] = biological target: T1, P. falciparum DXR; test: Plasmodium falciparum DXR enzyme IC50; type: biochemical
Experimental: Recombinant protein was expressed in Escherichia coli Rosetta2(DE3) cells obtained from Novagen (San Diego, CA). E. coli was cultured at 37° C. in Luria-Bertani (LB) media supplemented with 100 μg/mL ampicillin and 34 μg/ml chloramphenicol with constant shaking at 250 rpm. Agar (1.5% wt/vol) was added to prepare solid media.
Cloning. Expression, and Purification of P falciparum DXR
The P falciparum dxr gene was truncated to begin at Lys 75 to remove the apicoplast signaling sequence. A Pf 3D7 trophozoite cDNA library (MRA-297) was acquired from BEi resources and used as the template for amplification of the PIDXR gene. […] 3′ reverse and cloned into a pETl 00/D-TOPO vector to yield pPIDXR, facilitating the expression of an N-terminal His6-tagged protein.
The expression plasmid (pPIDXR) was separately transformed into chemically competent E. coli Rosetta2(DE3) cells for protein expression. To express the His-tagged protein, a 10 mL overnight seed culture was added to IL of LB media and then incubated with shaking at 37° C. and 250 rpm. At an OD600 of 1.8, protein expression was induced with addition of isopropyl b-D-thiogalactopyranoside (IPTG) to 0.5 mM and the culture was further incubated with shaking at 37° C. and 250 rpm for an additional 18 hours. Cells were harvested via centrifugation (4648×g, 20 min, 4° C.) and stored at −80° C. Protein was subsequently isolated and purified from the cells via chemical lysis and affinity chromatography.
Cells were lysed with lysis buffer A (100 mM Tris pH 8.0, 0.032% lysozyme, 3 mL per gram cell pellet), followed by lysis buffer B (0.1 M CaCh, 0.1 M MgCh, 0.1 M NaCl, 0.020% DNase, 0.3 mL per gram cell pellet).
The column was washed with 20 column volumes of Ix equilibrium buffer (50 mM HEPES pH 7.5, 300 mM NaCl), 10 column volumes of Ix wash buffer (50 mM HEPES pH 7.5, 300 mM NaCl, 10 mM imidazole), and 15 column volumes of 2× wash buffer (100 mM HEPES pH 7.5, 600 mM NaCl, 20 mM imidazole). The protein was eluted with 5 column volumes of Ix elution buffer (150 mM imidazole pH 7.0, 300 mM NaCl). Buffer was exchanged with 0.1 M Tris pH 7.5, I mM NaCl, 5 mM DTT during concentration by ultrafiltration. Protein concentration was determined using Advanced Protein Assay Reagent (Cytoskeleton, Denver CO) with y-globulins (Sigma-Aldrich) as the standard. Purified protein was visualized via Coomassie stained SDS-PAGE.

[3] = whole cell, read-out: P. f. IC50
[4] = recombinant His-tagged enzyme, read-out: P. f. DXR IC50
[5] = Plasmodium falciparum, 3D7, read-out: P. f. IC50

CC(=O)N(O)C/C=C/P(=O)(OCOC(=O)c1ccccc1)OCOC(=O)c1ccccc1 [BOM, CH3]
IC50 (P falciparum strain 3D7; [3]): 11 nM

O=CN(O)C/C=C/P(=O)(OCOC(=O)c1ccccc1)OCOC(=O)c1ccccc1 [BOM, H]
IC50 (P falciparum strain 3D7; [3]): 42 nM

O=C(OCOP(=O)(/C=C/CN(O)C(=O)c1ccccc1)OCOC(=O)c1ccccc1)c1ccccc1 [BOM, phenyl, [({[(E)-benzoyloxy]methoxy}[(1E)-3-(N-hydroxy-1-phenylformamido)prop-1-en-1-yl]phosphoryl)oxy]methyl benzoate]
IC50 (P falciparum strain 3D7; [3]): 297 nM

CC(=O)N(O)CCCP(=O)(O)O [FR900098]
IC50 (P. falciparum DXR [1]): 24 nM

O=C(c1ccc(Cl)c(Cl)c1)N(O)C/C=C/P(=O)(O)O [NH4,3,4-dichlorophenyl]
IC50 (P falciparum strain 3D7; [3]): 129 nM

O=C(c1cc(Cl)cc(Cl)c1)N(O)C/C=C/P(=O)(O)O [NH4,3,5-dichlorophenyl]
IC50 (P falciparum strain 3D7; [3]): 218 nM

O=C(c1cccc(Cl)c1)N(O)C/C=C/P(=O)(O)O [NH4,3-chlorophenyl]
IC50 (P falciparum strain 3D7; [3]): 116 nM

O=C(c1cccc(F)c1)N(O)C/C=C/P(=O)(O)O [NH4,3-fluorophenyl]
IC50 (P falciparum strain 3D7; [3]): 352 nM

O=C(c1cccc(C(F)(F)F)c1)N(O)C/C=C/P(=O)(O)O [NH4,3-trifluoromethylphenyl]
IC50 (P. falciparum DXR [2]; [4]): 49 nM

O=C(c1ccc(F)cc1)N(O)C/C=C/P(=O)(O)O [NH4,4-fluorophenyl]
IC50 (P falciparum strain 3D7; [3]): 173 nM | IC50 (P. falciparum DXR [2]; [4]): 38 nM

COc1ccc(C(=O)N(O)C/C=C/P(=O)(O)O)cc1 [NH4,4-methoxyphenyl]
IC50 (P falciparum strain 3D7; [3]): 632 nM

O=C(c1ccncc1)N(O)C/C=C/P(=O)(O)O [NH4,4-pyridinyl]
IC50 (P falciparum strain 3D7; [3]): 5390 nM

O=C(c1ccccc1)N(O)C/C=C/P(=O)(O)O [NH4, phenyl, Diammonium [(1E)-3-(N-hydroxy-1-phenylformamido)prop-1-en-1-yl]phosphonate]
IC50 (P falciparum strain 3D7; [5]): 273 nM | IC50 (P. falciparum DXR [2]): 81 nM

O=C(c1cccc2ccccc12)N(O)C/C=C/P(=O)(O)O [Na/H, 1-naphthyl]
IC50 (P falciparum strain 3D7; [3]): 5480 nM | IC50 (P. falciparum DXR [2]; [4]): 1800 nM

O=C(c1ccc2ccccc2c1)N(O)C/C=C/P(=O)(O)O [Na/H, 2-naphthyl]
IC50 (P falciparum strain 3D7; [3]): 1620 nM | IC50 (P. falciparum DXR [2]; [4]): 471 nM

O=C(c1cc(Cl)cc(Cl)c1)N(O)C/C=C/P(=O)(O)O [Na/H, 3,5-dichlorophenyl, Sodium hydrogen [(1E)-3-[1-(3,5-dichlorophenyl)—N-hydroxyformamido]prop-1-en-1-yl]phosphonate]
IC50 (P falciparum strain 3D7; [5]): 170 nM | IC50 (P. falciparum DXR [2]): 64 nM

O=C(c1cccc(Cl)c1)N(O)C/C=C/P(=O)(O)O [Na/H, 3-chlorophenyl]
IC50 (P falciparum strain 3D7; [3]): 279 nM | IC50 (P. falciparum DXR [2]; [4]): 158 nM

O=C(c1cccc(C(F)(F)F)c1)N(O)C/C=C/P(=O)(O)O [Na/H, 3-trifluoromethylphenyl]
IC50 (P falciparum strain 3D7; [3]): 188 nM | IC50 (P. falciparum DXR [2]; [4]): 48 nM

O=C(c1ccc(-c2ccccc2)cc1)N(O)C/C=C/P(=O)(O)O [Na/H, 4-biphenyl]
IC50 (P falciparum strain 3D7; [3]): 4380 nM | IC50 (P. falciparum DXR [2]; [4]): 290 nM

O=C(c1ccc(F)cc1)N(O)C/C=C/P(=O)(O)O [Na/H, 4-fluorophenyl]
IC50 (P falciparum strain 3D7; [3]): 121 nM | IC50 (P. falciparum DXR [2]; [4]): 41 nM

Cc1ccc(C(=O)N(O)C/C=C/P(=O)(O)O)cc1 [Na/H, 4-methylphenyl]
IC50 (P falciparum strain 3D7; [3]): 1390 nM | IC50 (P. falciparum DXR [2]; [4]): 164 nM

O=C(c1ccncc1)N(O)C/C=C/P(=O)(O)O [Na/H, 4-pyridinyl]
IC50 (P falciparum strain 3D7; [3]): 6520 nM | IC50 (P. falciparum DXR [2]; [4]): 519 nM

CC(C)(C)c1ccc(C(=O)N(O)C/C=C/P(=O)(O)O)cc1 [Na/H, 4-t-butylphenyl]
IC50 (P falciparum strain 3D7; [3]): 43700 nM | IC50 (P. falciparum DXR [2]; [4]): 37900 nM

O=C(c1ccc(C(F)(F)F)cc1)N(O)C/C=C/P(=O)(O)O [Na/H, 4-trifluoromethylphenyl]
IC50 (P falciparum strain 3D7; [3]): 2500 nM | IC50 (P. falciparum DXR [2]; [4]): 146 nM

CC(=O)N(O)C/C=C/P(=O)(OCOC(=O)C(C)(C)C)OCOC(=O)C(C)(C)C [POM, CH3]
IC50 (P falciparum strain 3D7; [3]): 18 nM

CC(C)(C)C(=O)OCOP(=O)(/C=C/CN(O)C=O)OCOC(=O)C(C)(C)C [POM, H]
IC50 (P falciparum strain 3D7; [3]): 13 nM

CC(C)(C)C(=O)OCOP(=O)(C/C=C/N(O)C(=O)c1ccccc1)OCOC(=O)C(C)(C)C [POM, phenyl, (E)-(((3-(N-hydroxybenzamido)allyl)phosphoryl)bis(oxy))bis(methylene)bis(2,2-dimethylpropanoate)]
IC50 (P falciparum strain 3D7; [3]): 200 nM
